# In patent publication US20130210779A1, “METHOD OF IDENTIFYING TRIPLE NEGATIVE BREAST CANCER” (The Washington University, priority 2012, published 2013):
# How the values were obtained:
# BRCA1-deficient cells = settings: cited from earlier work
# BOGA cells [1] = assay: Western blot of protein levels in BOGA cells after treatment; format: cell-based
# Procedure: MCF7 cells were a gift from J. Weber (Washington University, St. Louis, Mo.). Cells were maintained in DMEM (Cellgro) supplemented with 10% fetal bovine serum (Sigma-Aldrich), antibiotics, and antimycotics. Cells transduced with short hairpin RNAs (shRNAs) were maintained in selection media containing 0.5 mg/mL Geneticin G418 (Gibco) or 2 μg/mL puromycin (Invitrogen).
# Cells were lysed in RIPA buffer (50 mM Tris-HCl pH 8.0, 150 mM NaCl, 1% NP-40, 0.5% sodium deoxycholate, 0.5% SDS) supplemented with PMSF, protease inhibitors, and DTT. Following sonication, 120 μg of total cell lysate was loaded into 4%-15% Tris-Gly gradient gels. Protein detection was carried out with the following antibodies: BRCA1 (sc-6954, Santa Cruz), 53BP1 (NB100-304, Novus Biologicals), cathepsin L (sc-6498, Santa Cruz), p107 (sc-318, Santa Cruz), RAD51 (sc-8349, Santa Cruz), RPA (NA18, Calbiochem), and β-Tubulin (T8328, Sigma-Aldrich).
# (§1) Aliquots of 1 nmol calcitriol were resuspended in 1 mL of bovine growth serum (BGS) and diluted in DMEM with antibiotics and antimycotics to a final concentration of 10% BGS. BGS was used as the vehicle in control media. Treatment was carried out for 24 hours unless indicated otherwise.
# (§2) Cells were incubated with the broad spectrum cathepsin inhibitor E-64 (E3132, Sigma-Aldrich) at a concentration of 10 μM. Water served as the vehicle in control media. Treatment was carried out for 24 hours unless indicated otherwise.
# BOGA cells [2] = assay: Analysis of aberrant chromosomes in metaphase spreads (genomic instability); format: cell-based
# Procedure: as §1, §2
# Cells were treated with the PARPi EB-47 (E8405, Sigma-Aldrich) at a concentration of 1.2 μg/mL for 48 hours. PARPi was dissolved in water, which was used as vehicle control.
# (§3) For determining the extent of genomic instability, cells were irradiated with 2 Gy and analysis of metaphase spreads was performed 24 hours post-irradiation. For assaying formation of IRIF, cells were irradiated with 8 Gy and fixed and processed for immunofluorescence 1 hour, 3 hours, or 6 hours post-irradiation as indicated. For comet assays, cells were irradiated with 8 Gy.
# Following all treatments, cells were arrested in mitosis by treatment with colcemid for 4 hours and metaphase spreads prepared by hypotonic swelling in 0.56% KCl, followed by fixation in 3:1 methanol:acetic acid. Cell suspensions were dropped onto slides and stained for 25 minutes in Wright-Giemsa Stain (9380-32, Ricca Chemical Company) and then washed in water. Slides were allowed to dry and were mounted using Eukitt Mounting Reagent and analyzed on an Olympus BX51 light microscope.
# BOGA cells [3] = assay: RAD51 IRIF formation by immunofluorescence; format: cell-based; settings: vitamin D, 8 Gy
# Procedure: (§4) Aliquots of 1 nmol calcitriol were resuspended in 1 mL of bovine growth serum (BGS) and diluted in DMEM with antibiotics and antimycotics to a final concentration of 10% BGS. BGS was used as the vehicle in control media. Treatment was carried out for 24 hours unless indicated otherwise. For determining the extent of genomic instability, cells were irradiated with 2 Gy and analysis of metaphase spreads was performed 24 hours post-irradiation. For assaying formation of IRIF, cells were irradiated with 8 Gy and fixed and processed for immunofluorescence 1 hour, 3 hours, or 6 hours post-irradiation as indicated. For comet assays, cells were irradiated with 8 Gy. Cells were plated on coverslips, irradiated with 8 Gy if indicated, and collected at the varying time intervals. Cells were fixed with 3.7% formaldehyde and 0.2% TritonX-100 in PBS for 10 minutes at RT, followed by 3 washes in PBS. After blocking in 1% BSA and 0.1% Triton X-100 in PBS for 1 hour at 37° C., cells were incubated with 53BP1 (NB100-304, Novus Biologicals) or RAD51 (sc-8349, Santa Cruz) antibodies for 1 hour at 37° C. Three washes in PBS were carried out followed by incubation for 1 hour at 37° C. with appropriate secondary antibodies. Final washes in PBS were carried out and cells were counterstained with DAPI and coverslips were mounted on slides using Vectashield (Vector Labs). […]
# BOGA cells [4] = assay: 53BP1 IRIF formation by immunofluorescence; format: cell-based; settings: BOGA cells (sh BRCA1), vitamin D 10−7 M from 24 hours prior to 8 Gy, fixed 6 hours post-IR
# Procedure: as §4
# BOGA cells [5] = assay: Neutral comet assay, kinetics of DNA DSBs repair; format: cell-based; settings: vitamin D 10−7 M 24 h preirradiation, 8 Gy
# Procedure: as §3
# Neutral comet assays were performed using CometSlide assay kits (Trevigen). […] Cells were embedded in agarose, lysed, and subjected to neutral single cell gel electrophoresis. The agarose was dehydrated and cells were stained with ethidium bromide to visualize under a fluorescence microscope. Olive comet moment was determined using the program CometScore Version 1.5 (TriTek). Olive moment was calculated by multiplying the percentage of DNA in the tail by the displacement between the means of the head and tail distributions as described (Olive et al., 1990). A total of 25-30 comets were analyzed per sample in each experiment.
# [6] = BRCA1-deficient (BOGA) cells, E64 10 μM
compound,measurement,setting,value
CNCc1ccc(-c2[nH]c3cc(F)cc4c3c2CCNC4=O)cc1 [AG014699],Clonogenic survival of BRCA1-deficient cells compared to cells expressing BRCA1,BRCA1-deficient cells,clear reduction
CC(C)C[C@H](NC(=O)[C@H]1O[C@@H]1C(=O)O)C(=O)NCCCCN=C(N)N [E64],53BP1 protein levels (western blot),BOGA cells [1]; [6],increased levels
same,CTSL levels (western blot),BOGA cells [1]; [6],without major changes
same,Genomic instability after IR,BOGA cells [2]; E64 24 h prior to 2 Gy,marked increase
Nc1ncnc2c1ncn2[C@@H]1O[C@H](C(=O)N2CCN(CC(=O)Nc3cccc4c3CNC4=O)CC2)[C@@H](O)[C@H]1O [EB-47],Genomic instability (metaphases with chromosomal aberrations),BOGA cells [2]; PARPi EB-47 1.2 μg/mL 48 h alone,does not result in profound genomic instability
O=C1CCC(=O)N1c1cc(Cc2n[nH]c(=O)c3ccccc23)ccc1F [KU0058684],Clonogenic survival of BRCA1-deficient cells compared to cells expressing BRCA1,BRCA1-deficient cells,clear reduction
O=C(c1cc(Cc2n[nH]c(=O)c3ccccc23)ccc1F)N1CCCNCC1 [KU0058948],Clonogenic survival of BRCA1-deficient cells compared to cells expressing BRCA1,BRCA1-deficient cells,clear reduction
"C=C1/C(=C\C=C2/CCC[C@]3(C)[C@@H]([C@H](C)CCCC(C)(C)O)CC[C@@H]23)C[C@@H](O)C[C@@H]1O [vitamin D, 1α,25-dihydroxyvitamin D3]",53BP1 protein levels (western blot),"BOGA cells [1]; BOGA cells, vitamin D 10−7 M",stabilizes
same,p107 levels (control for inhibition of CTSL activity),"BOGA cells [1]; BOGA cells, vitamin D 10−7 M",stabilization
same,% cells positive for RAD51 IRIF,BOGA cells [3]; 1 hour post-IR,35%
same,Extent of RAD51 IRIF at later times post-irradiation,BOGA cells [3]; 3 h post-IR,did not affect
same,% cells with 53BP1 foci,BOGA cells [4],84%
same,% cells with 53BP1 foci,BOGA cells [4]; listed as vit D,84%
same,"Kinetics of DNA DSBs repair (fast phase), Olive comet moment",BOGA cells [5],rescues
same,Extent of chromosomal aberrations in response to PARPi,BOGA cells [2]; vitamin D 10−7 M 24 h prior to and with PARPi EB-47 1.2 μg/mL 48 h,increase
same,Percentage of metaphases with aberrant chromosomes after IR,"BOGA cells [2]; vitamin D 24 h prior to 2 Gy, 24 h post-IR",significantly increased
same,"Genomic instability (metaphases with chromosomal aberrations), single agent","BOGA cells [2]; vitamin D alone, mock irradiation",modest increase
